Results: patent publication US12172983B2, “EGFR inhibitors” (Blueprint Medicines Corporation, priority 2019, dated 2024)
pIC50: −log10 of the molar value.

Tests used:
EGFR (L858R T790M C797S) = target: T1, EGFR (L858R T790M C797S) (Homo sapiens, UniProt P00533, C797S/L858R/T790M); experiment: Biochemical EGFR inhibition assay (Caliper mobility shift), EGFR LRTMCS mutant; conditions: inhibitory activity against EGFR LRTMCS mutant; apparent IC50; read-out: Ext Enz LRTMCS
T1 construct: purchased SignalChem E10-122VG
T1 sequence (P00533 25-1210 T790M/C797S/L858R): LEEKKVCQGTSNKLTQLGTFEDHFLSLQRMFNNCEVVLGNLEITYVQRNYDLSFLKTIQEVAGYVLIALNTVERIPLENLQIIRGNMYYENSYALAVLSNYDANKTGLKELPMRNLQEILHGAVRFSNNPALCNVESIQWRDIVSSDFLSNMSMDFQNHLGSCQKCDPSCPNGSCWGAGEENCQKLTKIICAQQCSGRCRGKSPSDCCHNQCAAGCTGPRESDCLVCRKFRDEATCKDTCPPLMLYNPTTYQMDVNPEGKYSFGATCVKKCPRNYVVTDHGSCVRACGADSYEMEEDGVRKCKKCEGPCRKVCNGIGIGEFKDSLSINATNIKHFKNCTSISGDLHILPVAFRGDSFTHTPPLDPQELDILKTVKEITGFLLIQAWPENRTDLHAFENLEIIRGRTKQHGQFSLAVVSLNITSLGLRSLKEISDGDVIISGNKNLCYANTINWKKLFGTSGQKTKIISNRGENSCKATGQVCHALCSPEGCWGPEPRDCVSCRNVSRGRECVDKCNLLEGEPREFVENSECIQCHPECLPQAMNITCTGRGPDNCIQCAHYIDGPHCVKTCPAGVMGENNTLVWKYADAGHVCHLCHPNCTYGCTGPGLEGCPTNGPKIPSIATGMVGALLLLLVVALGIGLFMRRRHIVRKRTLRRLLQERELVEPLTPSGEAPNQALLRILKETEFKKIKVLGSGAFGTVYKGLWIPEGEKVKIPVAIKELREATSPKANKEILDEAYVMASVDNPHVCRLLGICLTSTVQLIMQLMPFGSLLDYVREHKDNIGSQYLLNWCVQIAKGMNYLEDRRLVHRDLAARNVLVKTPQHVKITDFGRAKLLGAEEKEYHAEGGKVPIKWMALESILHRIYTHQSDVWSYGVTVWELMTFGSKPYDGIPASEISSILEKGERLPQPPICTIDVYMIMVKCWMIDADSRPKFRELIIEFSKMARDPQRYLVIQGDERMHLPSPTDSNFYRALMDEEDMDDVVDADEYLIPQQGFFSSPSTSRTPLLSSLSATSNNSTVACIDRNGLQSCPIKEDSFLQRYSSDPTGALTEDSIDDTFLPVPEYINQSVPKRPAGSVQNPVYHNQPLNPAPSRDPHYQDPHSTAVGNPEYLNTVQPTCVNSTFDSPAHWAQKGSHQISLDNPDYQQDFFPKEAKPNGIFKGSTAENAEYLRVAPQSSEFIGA
How it was run: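 Kinase reactions at 25 °C run to 10–20% peptide phosphorylation, stopped with 35 mM EDTA. Phosphorylated product and substrate separated electrophoretically by mobility shift. Apparent IC50 from percent activity versus log compound concentration.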

[1] = test system: phosphorylation of EGFR (Tyr1068) in NCI-H1975 cell line that harbors the EGFR L858R T790M mutations; experiment: NCI-H1975 pEGFR AlphaLISA assay; assay type: cell-based; conditions: Homo sapiens, NCI-H1975, inhibition of phosphorylation of mutant EGFR in NCI-H1975 cells; 4-5 hours incubation; read-out: Ext pEGFR H1975
How it was run: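 NCI-H1975 cells (EGFR L858R/T790M) seeded overnight, then treated with compound for 4-5 h at 37 °C/5% CO2. After lysis, p-EGFR (Tyr1068) quantified by AlphaLISA SureFire Ultra with acceptor then donor beads; IC50 fitted from percent inhibition versus log concentration.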

| SMILES | pIC50 (EGFR (L858R T790M C797S)) | pIC50 [1] |
| --- | --- | --- |
| CC(C)c1ccc(N2C[C@H](CS(C)(=O)=O)[C@H]2C)c2cnc(Nc3ccnc(N4CC[C@@H](OCCN(C)C)C(F)(F)C4)n3)cc12 (single isomer, unassigned) [Compound 304, N-{2-[(4R)-4-[2-(dimethylamino)ethoxy]-3,3-difluoropiperidin-1-yl]pyrimidin-4-yl}-8-[(2R,3S)-3-(methanesulfonylmethyl)-2-methylazetidin-1-yl]-5-(propan-2-yl)isoquinolin-3-amine or N-{2-[(4S)-4-[2-(dimethylamino)ethoxy]-3,3-difluoropiperidin-1-yl]pyrimidin-4-yl}-8-[(2R,3S)-3-(methanesulfonylmethyl)-2-methylazetidin-1-yl]-5-(propan-2-yl)isoquinolin-3-amine] | ≥ 7.82 | ≥ 8.00 |
| CC(C)c1ncc(N2C[C@H](CS(C)(=O)=O)[C@H]2C)c2cnc(Nc3ccnc(N4CC[C@H](OC5CC5)[C@H](F)C4)n3)cc12 [Compound 224, N-{2-[(3R,4S)-4-cyclopropoxy-3-fluoropiperidin-1-yl]pyrimidin-4-yl}-8-[(2R,3S)-3-(methanesulfonylmethyl)-2-methylazetidin-1-yl]-5-(propan-2-yl)-2,6-naphthyridin-3-amine] | 7.70 to 7.82 | ≥ 8.00 |
| CC(C)c1ccc(N2CC(CS(C)(=O)=O)C2)c2cnc(Nc3ccnc(N4CCC5(CC4)OCCO5)n3)cc12 [Compound 88, N-(2-{1,4-dioxa-8-azaspiro[4.5]decan-8-yl}pyrimidin-4-yl)-8-[3-(methanesulfonylmethyl)azetidin-1-yl]-5-(propan-2-yl)isoquinolin-3-amine] | ≥ 7.82 | 7.52 to 7.70 |
| CCS(=O)(=O)CC1CN(c2ccc(C(C)C)c3cc(Nc4ccnc(N5CC[C@@H](OCCO)[C@@H](F)C5)n4)ncc23)C1 [Compound 292, 2-{[(3S,4R)-1-{4-[(8-{3-[(ethanesulfonyl)methyl]azetidin-1-yl}-5-(propan-2-yl)isoquinolin-3-yl)amino]pyrimidin-2-yl}-3-fluoropiperidin-4-yl]oxy}ethan-1-ol] | ≥ 7.82 | ≥ 8.00 |
| CC(C)c1ccc(N2C[C@H](CS(C)(=O)=O)[C@H]2C)c2cnc(Nc3ccnc(N4CC[C@H](OCC(C)(C)O)[C@H](F)C4)n3)cc12 [Compound 255, 1-{[(3R,4S)-3-fluoro-1-[4-({8-[(2R,3S)-3-(methanesulfonylmethyl)-2-methylazetidin-1-yl]-5-(propan-2-yl)isoquinolin-3-yl}amino)pyrimidin-2-yl]piperidin-4-yl]oxy}-2-methylpropan-2-ol] | 7.52 to 7.70 | ≥ 8.00 |
| CCS(=O)(=O)CC1CN(c2ccc(C(C)C)c3cc(Nc4cnnc(N5CC[C@H](OC)[C@H](F)C5)n4)ncc23)C1 [Compound 281, 8-{3-[(ethanesulfonyl)methyl]azetidin-1-yl}-N-{3-[(3R,4S)-3-fluoro-4-methoxypiperidin-1-yl]-1,2,4-triazin-5-yl}-5-(propan-2-yl)isoquinolin-3-amine] | ≥ 7.82 | ≥ 8.00 |
| CO[C@@H]1[C@H](O)CN(c2nccc(Nc3cc4c(C(C)C)ncc(N5C[C@H](CS(C)(=O)=O)[C@H]5C)c4cn3)n2)CC1(F)F (single isomer, unassigned) [Compound 233, (3R,4R)-5,5-difluoro-1-[4-({8-[(2R,3S)-3-(methanesulfonylmethyl)-2-methylazetidin-1-yl]-5-(propan-2-yl)-2,6-naphthyridin-3-yl}amino)pyrimidin-2-yl]-4-methoxypiperidin-3-ol or (3S,4S)-5,5-difluoro-1-[4-({8-[(2R,3S)-3-(methanesulfonylmethyl)-2-methylazetidin-1-yl]-5-(propan-2-yl)-2,6-naphthyridin-3-yl}amino)pyrimidin-2-yl]-4-methoxypiperidin-3-ol] | ≥ 7.82 | ≥ 8.00 |
| CC(C)c1ccc(N2C[C@H](CS(C)(=O)=O)[C@H]2C)c2cnc(Nc3ccnc(N4CC[C@H](OCCO)[C@H](F)C4)n3)cc12 [Compound 228, 2-((3R,4S)-3-fluoro-1-(4-(5-isopropyl-8-((2R,3S)-2-methyl-3-(methylsulfonylmethyl)azetidin-1-yl)isoquinolin-3-ylamino)pyrimidin-2-yl)piperidin-4-yloxy)ethanol] | ≥ 7.82 | ≥ 8.00 |
| COCCO[C@H]1CCN(c2nccc(Nc3cc4c(C(C)C)ccc(N5CC(CS(C)(=O)=O)C5)c4cn3)n2)C[C@H]1O (racemic) [Compound 226, (3R,4S)-1-[4-[[5-isopropyl-8-[3-(methylsulfonylmethyl)azetidin-1-yl]-3-isoquinolyl]amino]pyrimidin-2-yl]-4-(2-methoxyethoxy)piperidin-3-ol and (3S,4R)-1-[4-[[5-isopropyl-8-[3-(methylsulfonylmethyl)azetidin-1-yl]-3-isoquinolyl]amino]pyrimidin-2-yl]-4-(2-methoxyethoxy)piperidin-3-ol] | 7.00 to 7.52 | 7.30 to 7.52 |
| CCS(=O)(=O)C[C@H]1CN(c2nnc(C(C)C)c3cc(Nc4ccnc(N5CC[C@@H](OC)[C@@H](F)C5)n4)ncc23)[C@@H]1C [Compound 206, N-{4-[(2R,3S)-3-[(ethanesulfonyl)methyl]-2-methylazetidin-1-yl]-1-(propan-2-yl)pyrido[3,4-d]pyridazin-7-yl}-2-[(3S,4R)-3-fluoro-4-methoxypiperidin-1-yl]pyrimidin-4-amine] | ≥ 7.82 | ≥ 8.00 |
| COC1(CCN)CCN(c2nccc(Nc3cc4c(C(C)C)ccc(N5C[C@H](CS(C)(=O)=O)[C@H]5C)c4cn3)n2)CC1 [Compound 221, N-{2-[4-(2-aminoethyl)-4-methoxypiperidin-1-yl]pyrimidin-4-yl}-8-[(2R,3S)-3-(methanesulfonylmethyl)-2-methylazetidin-1-yl]-5-(propan-2-yl)isoquinolin-3-amine] | ≥ 7.82 | 7.30 to 7.52 |
| CCS(=O)(=O)C[C@H]1CN(c2cnc(C(C)C)c3cc(Nc4ccnc(N5CC[C@](C)(O)[C@H](F)C5)n4)ncc23)[C@@H]1C (single isomer, unassigned) [Compound 195] | ≥ 7.82 | ≥ 8.00 |
| CC(C)c1ccc(N2CC(CS(C)(=O)=O)C2)c2cnc(Nc3ccnc(N4CC[C@](C)(O)C(F)(F)C4)n3)cc12 (single isomer, unassigned) [Compound 153, (4S)-3,3-difluoro-1-[4-({8-[3-(methanesulfonylmethyl)azetidin-1-yl]-5-(propan-2-yl)isoquinolin-3-yl}amino)pyrimidin-2-yl]-4-methylpiperidin-4-ol or (4R)-3,3-difluoro-1-[4-({8-[3-(methanesulfonylmethyl)azetidin-1-yl]-5-(propan-2-yl)isoquinolin-3-yl}amino)pyrimidin-2-yl]-4-methylpiperidin-4-ol] | ≥ 7.82 | 7.70 to 8.00 |
| CCS(=O)(=O)C[C@H]1CN(c2ccc(C(C)C)c3cc(Nc4cnnc(N5CC[C@@H](OC)[C@@H](F)C5)n4)ncc23)[C@@H]1C [Compound 288, 8-[(2R,3S)-3-[(ethanesulfonyl)methyl]-2-methylazetidin-1-yl]-N-{3-[(3S,4R)-3-fluoro-4-methoxypiperidin-1-yl]-1,2,4-triazin-5-yl}-5-(propan-2-yl)isoquinolin-3-amine] | ≥ 7.82 | ≥ 8.00 |
| CC(C)c1ccc(N2C[C@H](CS(C)(=O)=O)[C@H]2C)c2cnc(Nc3ccnc(N4CC[C@@H](OCCO)[C@@H](F)C4)n3)cc12 [Compound 229, 2-((3S,4R)-3-fluoro-1-(4-(5-isopropyl-8-((2R,3S)-2-methyl-3-(methylsulfonylmethyl)azetidin-1-yl)isoquinolin-3-ylamino)pyrimidin-2-yl)piperidin-4-yloxy)ethanol] | ≥ 7.82 | ≥ 8.00 |
| CCS(=O)(=O)C[C@H]1CN(c2ccc(C(C)C)c3cc(Nc4ccnc(N5CC[C@](C)(O)[C@H](F)C5)n4)ncc23)[C@@H]1C (single isomer, unassigned) [Compound 187] | 7.00 to 7.52 | 7.70 to 8.00 |
| CC(C)c1ccc(N2CC(CS(C)(=O)=O)C2)c2cnc(Nc3ccnc(N4CC[C@](C)(O)[C@@](C)(F)C4)n3)cc12 (single isomer, unassigned) [Compound 114, (3S,4S)-3-fluoro-1-[4-({8-[3-(methanesulfonylmethyl)azetidin-1-yl]-5-(propan-2-yl)isoquinolin-3-yl}amino)pyrimidin-2-yl]-3,4-dimethylpiperidin-4-ol or (3R,4R)-3-fluoro-1-[4-({8-[3-(methanesulfonylmethyl)azetidin-1-yl]-5-(propan-2-yl)isoquinolin-3-yl}amino)pyrimidin-2-yl]-3,4-dimethylpiperidin-4-ol] | 7.00 to 7.52 | 7.30 to 7.52 |
| CC(C)c1ccc(N2C[C@H](CS(C)(=O)=O)[C@H]2C)c2cnc(Nc3ccnc(N4CC[C@](C)(O)C(F)(F)C4)n3)cc12 (single isomer, unassigned) [Compound 210, (4S)-3,3-difluoro-1-[4-({8-[(2R,3S)-3-(methanesulfonylmethyl)-2-methylazetidin-1-yl]-5-(propan-2-yl)isoquinolin-3-yl}amino)pyrimidin-2-yl]-4-methylpiperidin-4-ol or (4R)-3,3-difluoro-1-[4-({8-[(2R,3S)-3-(methanesulfonylmethyl)-2-methylazetidin-1-yl]-5-(propan-2-yl)isoquinolin-3-yl}amino)pyrimidin-2-yl]-4-methylpiperidin-4-ol] | 7.52 to 7.70 | 7.70 to 8.00 |
